Earlier results, collected in patent US20100280975A1, “SYSTEMS FOR CLINICAL TRIALS” (WisTa Laboratories Ltd., priority 2007, published 2010).

Settings: placebo arm improved 3.2 units from baseline ADAS-cog; cited from earlier work

COCCOC(=O)C1=C(C)NC(C)=C(C(=O)OC(C)C)C1c1cccc(C#N)c1Cl (stereo not shown) [MEM-1003]
efficacy in clinical trial: failed to demonstrate efficacy
